Test results: patent US20090029992A1, “SUBSTITUTED PYRAZOLE COMPOUNDS” (priority 2007, published 2009)

Key:
Type in all cases: biochemical
[1] = target: T1, N-terminal His-tagged human Src (Homo sapiens, UniProt P12931); experiment: Src kinase inhibition assay (33P-ATP filter assay)
T1 construct: His (N); purchased Upstate USA Inc, 706 Forest Street, Charlottesville, Va

[2] = target: T2, N-terminal GST-tagged recombinant human Flt3, residues 564-end (Homo sapiens, UniProt P36888); experiment: Flt3 kinase inhibition assay (33P-ATP filter assay)
T2 construct: recombinant human Flt3, residues 564-end; GST (N); purchased Upstate USA Inc, 706 Forest Street, Charlottesville, Va
T2 sequence (P36888 564-993 limits assumed): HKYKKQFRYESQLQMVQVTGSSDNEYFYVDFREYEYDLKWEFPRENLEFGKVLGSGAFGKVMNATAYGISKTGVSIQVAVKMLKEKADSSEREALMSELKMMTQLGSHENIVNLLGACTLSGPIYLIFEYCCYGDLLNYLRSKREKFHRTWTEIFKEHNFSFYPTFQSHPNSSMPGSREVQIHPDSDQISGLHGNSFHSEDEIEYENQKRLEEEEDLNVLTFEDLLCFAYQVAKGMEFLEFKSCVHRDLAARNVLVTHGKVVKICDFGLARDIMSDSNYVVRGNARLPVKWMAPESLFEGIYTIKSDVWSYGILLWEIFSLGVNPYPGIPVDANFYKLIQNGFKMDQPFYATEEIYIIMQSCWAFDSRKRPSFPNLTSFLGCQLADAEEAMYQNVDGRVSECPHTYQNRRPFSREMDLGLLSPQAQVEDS
Method in brief: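 Serial compound dilutions incubated 40 min at room temperature with 5-10 mU Flt3 kinase, 50 μM peptide substrate and [γ-33P]ATP/10 mM magnesium acetate, pH 7.0. Phosphoric acid stop, filter capture and scintillation counting; activity compared with uninhibited reactions.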

recombinant Aurora A = target: T3, recombinant Aurora A (Homo sapiens, UniProt O14965); experiment: Aurora A (Aurora 2) inhibition assay, Z'-Lyte kinase assay; settings: group with IC50 greater than 100 nM; ATP 10 μM, 1 h
T3 construct: purchased Upstate, Lake Placid, N.Y
T3 sequence (O14965 1-403): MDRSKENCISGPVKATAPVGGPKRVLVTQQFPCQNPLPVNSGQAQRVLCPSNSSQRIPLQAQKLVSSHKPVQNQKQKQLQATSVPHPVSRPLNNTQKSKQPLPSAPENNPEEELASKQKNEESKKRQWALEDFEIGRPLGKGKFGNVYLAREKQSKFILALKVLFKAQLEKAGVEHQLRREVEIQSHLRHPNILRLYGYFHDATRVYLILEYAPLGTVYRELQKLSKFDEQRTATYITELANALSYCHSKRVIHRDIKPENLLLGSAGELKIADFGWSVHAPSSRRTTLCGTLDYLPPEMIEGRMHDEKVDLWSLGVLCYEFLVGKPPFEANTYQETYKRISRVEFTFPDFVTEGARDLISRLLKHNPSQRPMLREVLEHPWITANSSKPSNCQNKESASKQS
Method in brief: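 Z'-Lyte FRET assay: Aurora A (200-500 ng/mL final), Ser/Thr 1 peptide (2 μM) and ATP (10 μM) in 50 mM HEPES pH 7.5, 10 mM MgCl2, 5 mM EGTA, 0.05% Brij-35, 2 mM DTT, 1 h at room temperature. Coumarin/fluorescein emission ratio converted to percent phosphorylation; dose-response curves plotted.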

[3] = group with IC50 greater than 100 nM

T1 sequence (P12931 whole entry): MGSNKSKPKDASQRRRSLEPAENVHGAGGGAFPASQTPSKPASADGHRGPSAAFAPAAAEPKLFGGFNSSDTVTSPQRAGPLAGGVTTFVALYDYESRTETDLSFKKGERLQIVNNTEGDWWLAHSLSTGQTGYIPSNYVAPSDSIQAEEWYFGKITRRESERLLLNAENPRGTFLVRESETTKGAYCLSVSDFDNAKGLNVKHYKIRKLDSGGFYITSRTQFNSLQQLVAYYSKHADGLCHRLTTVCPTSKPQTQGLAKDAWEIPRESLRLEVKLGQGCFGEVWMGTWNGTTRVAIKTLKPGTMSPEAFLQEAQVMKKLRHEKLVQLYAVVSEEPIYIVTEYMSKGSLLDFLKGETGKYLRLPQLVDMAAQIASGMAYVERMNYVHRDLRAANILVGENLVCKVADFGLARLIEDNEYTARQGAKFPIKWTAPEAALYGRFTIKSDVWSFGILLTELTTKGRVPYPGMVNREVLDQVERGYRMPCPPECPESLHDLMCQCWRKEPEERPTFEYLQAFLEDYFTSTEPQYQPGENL

Structure (SMILES) | IC50 [1, 3] [µM] | IC50 ([2]; 40 minutes at room temperature) [µM] | IC50 (recombinant Aurora A) [µM] | IC50 ([1]; 40 minutes at room temperature) [µM] | IC50 [2, 3] [µM]
Cc1cc(Nc2cc(NC3CCOCC3)nc(-c3ccc(C(C)(C)C)cc3)n2)n[nH]1 [Compound 70, 2-(4-tert-butylphenyl)-N^4-(5-methyl-1H-pyrazol-3-yl)-N^6-(tetrahydro-2H-pyran-4-yl)pyrimidine-4,6-diamine] | ≤ 1 | ≤ 0.1 | ≤ 1 | – | –
COCCN(C)c1cc(Nc2cc(C)[nH]n2)nc(-c2cccc3ccccc23)n1 [Example 148, N^4-(2-methoxyethyl)-N^4-methyl-N^6-(5-methyl-1H-pyrazol-3-yl)-2-(naphthalen-1-yl)pyrimidine-4,6-diamine] | ≤ 1 | ≤ 0.1 | ≤ 1 | – | –
Cc1cc(Nc2cc(N3CCN(C)CC3)nc(-c3ccc(C(F)(F)F)cc3)n2)n[nH]1 [Compound 100] | ≤ 1 | ≤ 0.1 | ≤ 1 | – | –
Cc1cc(Nc2cc(N3CCN(C)CC3)nc(-c3cc(F)cc(Cl)c3)n2)n[nH]1 [Compound 97] | ≤ 1 | ≤ 0.1 | ≤ 1 | – | –
Cc1cc(Nc2cc(N3CCN(C)CC3)nc(-c3ccccc3C(F)(F)F)n2)n[nH]1 [Compound 102, N-(5-methyl-1H-pyrazol-3-yl)-6-(4-methylpiperazin-1-yl)-2-(2-(trifluoromethyl)phenyl)pyrimidin-4-amine] | ≤ 1 | ≤ 0.1 | ≤ 1 | – | –
Cc1cc(Nc2cc(NC3CCOCC3)nc(-c3cccc(C(F)(F)F)c3)n2)n[nH]1 [Compound 80, N^4-(5-methyl-1H-pyrazol-3-yl)-N^6-(tetrahydro-2H-pyran-4-yl)-2-(3-(trifluoromethyl)phenyl)pyrimidine-4,6-diamine] | ≤ 1 | ≤ 0.1 | ≤ 1 | – | –
Cc1cc(Nc2cc(NC3CCOCC3)nc(-c3ccccc3C(F)(F)F)n2)n[nH]1 [Compound 81, N^4-(5-methyl-1H-pyrazol-3-yl)-N^6-(tetrahydro-2H-pyran-4-yl)-2-(2-(trifluoromethyl)phenyl)pyrimidine-4,6-diamine] | ≤ 1 | ≤ 0.1 | ≤ 1 | – | –
Cc1cc(Nc2cc(N(C)CCN(C)C)nc(-c3ccc4c(c3)OCO4)n2)n[nH]1 [Example 146, 2-(benzo[d][1,3]dioxol-5-yl)-N^4-(2-(dimethylamino)ethyl)-N^4-methyl-N^6-(5-methyl-1H-pyrazol-3-yl)pyrimidine-4,6-diamine] | – | ≤ 0.1 | ≤ 1 | ≤ 0.1 | –
Cc1cc(Nc2cc(NC3CCOCC3)nc(-c3ccc(C(F)(F)F)cc3)n2)n[nH]1 [Compound 79, N^4-(5-methyl-1H-pyrazol-3-yl)-N^6-(tetrahydro-2H-pyran-4-yl)-2-(4-(trifluoromethyl)phenyl)pyrimidine-4,6-diamine] | ≤ 1 | ≤ 0.1 | ≤ 1 | – | –
Cc1cc(Nc2cc(NC3CCOCC3)nc(-c3cccc4ccccc34)n2)n[nH]1 [Example 127, N^4-(5-methyl-1H-pyrazol-3-yl)-2-(naphthalen-1-yl)-N^6-(tetrahydro-2H-pyran-4-yl)pyrimidine-4,6-diamine] | ≤ 1 | ≤ 0.1 | ≤ 1 | – | –
Cc1cc(Nc2cc(N3CCN(C)CC3)nc(-c3ccc(-c4ccccc4)cc3)n2)n[nH]1 [Example 157, 2-(biphenyl-4-yl)-N-(5-methyl-1H-pyrazol-3-yl)-6-(4-methylpiperazin-1-yl)pyrimidin-4-amine] | – | ≤ 0.1 | ≤ 1 | ≤ 0.1 | –
Cc1cc(Nc2cc(N(C)CCN(C)C)nc(-c3ccc4ccccc4c3)n2)n[nH]1 [Example 142, N^4-(2-(dimethylamino)ethyl)-N^4-methyl-N^6-(5-methyl-1H-pyrazol-3-yl)-2-(naphthalen-2-yl)pyrimidine-4,6-diamine] | – | ≤ 0.1 | ≤ 1 | ≤ 0.1 | –
COCCN(C)c1cc(Nc2cc(C)[nH]n2)nc(-c2cccc3c2OCCO3)n1 [Example 150, 2-(2,3-dihydrobenzo[b][1,4]dioxin-5-yl)-N^4-(2-methoxyethyl)-N^4-methyl-N^6-(5-methyl-1H-pyrazol-3-yl)pyrimidine-4,6-diamine] | – | ≤ 0.1 | ≤ 1 | – | –
Cc1cc(Nc2cc(N3CCN(C)CC3)nc(-c3cccc4c3OCCO4)n2)n[nH]1 [Example 136, 2-(2,3-dihydrobenzo[b][1,4]dioxin-5-yl)-N-(5-methyl-1H-pyrazol-3-yl)-6-(4-methylpiperazin-1-yl)pyrimidin-4-amine] | ≤ 1 | ≤ 0.1 | ≤ 1 | – | –
Cc1cc(Nc2cc(N(C)CCN(C)C)nc(-c3ccc(C(C)(C)C)cc3)n2)n[nH]1 [Compound 103, 2-(4-tert-butylphenyl)-N^4-(2-(dimethylamino)ethyl)-N^4-methyl-N^6-(5-methyl-1H-pyrazol-3-yl)pyrimidine-4,6-diamine] | – | ≤ 0.1 | ≤ 1 | ≤ 0.1 | –
Cc1cc(Nc2cc(N(C)CCN(C)C)nc(-c3cccc(N(C)C)c3)n2)n[nH]1 [Compound 107] | – | ≤ 0.1 | ≤ 1 | ≤ 0.1 | –

The next lines start with the values.

IC50 [1, 3] [µM] | IC50 ([2]; 40 minutes at room temperature) [µM] | IC50 (recombinant Aurora A) [µM] | IC50 ([1]; 40 minutes at room temperature) [µM] | IC50 [2, 3] [µM] | Structure (SMILES)
≤ 1 | ≤ 0.1 | ≤ 1 | – | – | COCCN(C)c1cc(Nc2cc(C)[nH]n2)nc(-c2cccc(C)c2)n1 [Compound 65, N^4-(2-methoxyethyl)-N^4-methyl-N^6-(5-methyl-1H-pyrazol-3-yl)-2-m-tolylpyrimidine-4,6-diamine]
≤ 1 | ≤ 0.1 | ≤ 1 | – | – | COCCN(C)c1cc(Nc2cc(C)[nH]n2)nc(-c2ccc3ccccc3c2)n1 [Example 149, N^4-(2-methoxyethyl)-N^4-methyl-N^6-(5-methyl-1H-pyrazol-3-yl)-2-(naphthalen-2-yl)pyrimidine-4,6-diamine]
≤ 1 | ≤ 0.1 | ≤ 1 | – | – | COCCN(C)c1cc(Nc2cc(C)[nH]n2)nc(-c2ccc(OC)cc2)n1 [Compound 67, N^4-(2-methoxyethyl)-2-(4-methoxyphenyl)-N^4-methyl-N^6-(5-methyl-1H-pyrazol-3-yl)pyrimidine-4,6-diamine]
≤ 1 | ≤ 0.1 | ≤ 1 | – | – | COCCN(C)c1cc(Nc2cc(C)[nH]n2)nc(-c2ccccc2Cl)n1 [Compound 63]
≤ 1 | ≤ 0.1 | ≤ 1 | – | – | COCCN(C)c1cc(Nc2cc(C)[nH]n2)nc(-c2cccc(OC)c2)n1 [Compound 68, N^4-(2-methoxyethyl)-2-(3-methoxyphenyl)-N^4-methyl-N^6-(5-methyl-1H-pyrazol-3-yl)pyrimidine-4,6-diamine]
≤ 1 | – | ≤ 1 | – | ≤ 1 | COCCN(C)c1cc(Nc2cc(C)[nH]n2)nc(-c2cccc(C(F)(F)F)c2)n1 [Compound 125, N^4-(2-methoxyethyl)-N^4-methyl-N^6-(5-methyl-1H-pyrazol-3-yl)-2-(3-(trifluoromethyl)phenyl)pyrimidine-4,6-diamine]
– | ≤ 0.1 | ≤ 1 | ≤ 0.1 | – | Cc1cc(Nc2cc(N(C)CCN(C)C)nc(-c3cccc(C(F)(F)F)c3)n2)n[nH]1 [Compound 113, N^4-(2-(dimethylamino)ethyl)-N^4-methyl-N^6-(5-methyl-1H-pyrazol-3-yl)-2-(3-(trifluoromethyl)phenyl)pyrimidine-4,6-diamine]
– | ≤ 0.1 | ≤ 1 | – | – | COCCN(C)c1cc(Nc2cc(C)[nH]n2)nc(-c2ccccc2C(F)(F)F)n1 [Example 126, N^4-(2-methoxyethyl)-N^4-methyl-N^6-(5-methyl-1H-pyrazol-3-yl)-2-(2-(trifluoromethyl)phenyl)pyrimidine-4,6-diamine]
– | ≤ 0.1 | ≤ 1 | ≤ 0.1 | – | COCCN(C)c1cc(Nc2cc(C)[nH]n2)nc(-c2ccc(N(C)C)cc2)n1 [Compound 118, 2-(4-(dimethylamino)phenyl)-N^4-(2-methoxyethyl)-N^4-methyl-N^6-(5-methyl-1H-pyrazol-3-yl)pyrimidine-4,6-diamine]
